# Like-named read-outs stand apart in the source and are kept apart here.
# Columns and labels:
# Male SD rats [1] = assay: ED50 by the sequential method, extinction of rat body-righting reflex; assay type: in vivo; conditions: Rattus norvegicus, etomidate as Etomidate-Lipuro, extinction of body-righting reflex ≥30 s, read-out: 50% effective dose (ED50)
# Protocol: (§1) Male SD rats (250˜300 g) were used as an experimental animal, and 50% effective dose (ED50) was determined by the sequential method. Three compounds were dissolved in a solvent of DMSO, and etomidate was used as the commercially-available formulation (B BRAUN, Etomidate-Lipuro®, 20 mg/10 mL). Based on the initial dose of 1 mg/kg, other dosages were adjusted as the ratio of 0.8, and the ED50 values of the three compounds and etomidate were determined. Extinction time ≥30 s for the rat body-righting reflex was the positive marker while no disappearance of the righting reflex was considered invalid. Based on the experimental results, four cross-points were formed, and the ED50 values were calculated. […] Then, the respective 2ED50 values of the three compounds and etomidate were taken in an equivalent dose, which were administered via the rat tail vein. The preliminary effects were evaluated in the four rat groups, which were given the three compounds of Formulas (I), (IV), (V) and etomidate, respectively, with 10 rats in each group. […] The last time of the Formula (I) compound and etomidate was 5-6 min, but the last time of the Formulas (IV) and (V) compounds was 10-20 min. […] DMSO had no pharmacological effects, and no adverse effects were observed. The onset time, the last time, and the adverse effects (types, incidence rates) induced by the three compounds and etomidate are shown in the following table:
# (§2) Male SD rats (250˜300 g) were used as an experimental animal, and 50% effective dose (ED50) was determined by the sequential method. Hydrochlorides of the three compounds were dissolved in the solvent of normal saline, and etomidate was used as the commercially-available formulation (B BRAUN, Etomidate-Lipuro®, 20 mg/10 mL). The initial dose was 1 mg/kg, and the ratio of dosage variation was 0.8, which was applied in the determination of ED50 values of Formula (I) hydrochloride, Formula (I) hydrobromide, Formula (I) trifluoroacetate, and etomidate. Extinction time (≥30 s) of the rat body-righting reflex was the positive marker while no disappearance of the reflex was considered invalid. Based on the experimental results, four cross-points were formed, and then ED50 values were calculated. […] Then, the respective 2ED50 values of the three compounds and etomidate were taken in an equivalent dose, which were administered via the rat tail vein. The preliminary effects were evaluated in the four rat groups, which were given the three compounds of Formulas (I) hydrochloride, Formula (I) hydrobromide, Formula (I) trifluoroacetate, and etomidate, respectively, with 10 rats in each group. […] Palinesthesia time was in arrange of 5-10 min. During the test period, no significant difference was found in the types and the incidence rates of adverse effects in each group. DMSO had no pharmacological effects, and no adverse effect was found. The onset time, the last time, and the types and the incidence rates of adverse effects induced by the three salt compounds and etomidate are shown in the following table: […]
# Male SD rats [2] = assay: Onset time, last time, palinesthesia time and adverse effects at 2ED50 via the rat tail vein; assay type: in vivo; conditions: for Incidence of adverse effect: Muscle tremor / Onset time: 10 rats per group; for Last time: disappearance to recovery of body-righting reflex
# Protocol: as §1, §2
# [3] = test system: self-synthesis of adrenocortical hormone; assay: Increase degree of cortical hormone (cortisol, corticosterone) in blood serum after ACTH stimulation, ELISA; assay type: in vivo; conditions: Beagle dogs; for Increase degree of corticosterone / Increase degree of cortisol: 2ED50, dexamethasone baseline, 1 h after ACTH
# Protocol: Male Beagle dogs (10±2 kg) were selected as an experimental animal. After administration, the contents of corticosterone and cortisol in the blood serum of the Beagle dogs were determined by the ELISA kit and the enzyme-labelled instrument. The 20 Beagle dogs were divided into five groups, with four dogs in each group. After respective administration of dexamethasone (0.01 mg/kg), the level of adrenal cortex in the dog body was lowered to the baseline, and those levels of corticosterone and cortisol at this time were used as the base value (baseline). […] After 10 min, ACTH (adrenocortical hormone) was given to stimulate and cause an increased level of cortex in the dog body. One hour after administration of ACTH, both corticosterone and cortisol levels in the blood serum of the Beagle dogs were determined, and the ratio of the peak value to the base value of the cortex levels was calculated. This ratio indicated the increase degree of the cortical hormone. A greater degree indicated a less inhibitory effect of the medicine on the cortical hormone. After administration, compounds of Formulas (I), (IV) and (V), DMSO, and the increase degree of the cortical hormone followed by stimulation of ACTH are shown in the following table:
# Male Beagle dogs (10±2 kg) were selected as an experimental animal. After administration, the contents of corticosterone and cortisol in the blood serum of the Beagle dogs were determined by the ELISA kit and the enzyme-labelled instrument. The 20 Beagle dogs were divided into five groups, with four dogs in each group. After respective administration of dexamethasone (0.01 mg/kg), the level of adrenal cortex in the dog body was lowered to the baseline, and the levels of corticosterone and cortisol at this time were used as the baseline. Then, the equivalent doses (2ED50) of the compounds of Formula (I) hydrochloride (3.62 mg/kg), hydrobromide (3.86 mg/kg), trifluoroacetate (4.66 mg/kg), the positive control medicine Etomidate-Lipuro® (0.9 mg/kg), and the equal-volume of solvent DMSO were respectively administrated into the dogs of the five groups. After 10 min, ACTH was given to stimulate and cause the cortex levels increase in the dog body. One hour after administration of ACTH, both the cortical hormone levels were determined, and the ratio of the peak value to the baseline of cortex levels was calculated. This ratio indicated the increase degree of the cortical hormone. A greater degree of increase indicated a less inhibitory effect of the medicine on the cortical hormone. After administrations, the three salts of the Formula (I) compound, DMSO, the increase degree of the cortical hormone followed by stimulation of ACTH are shown in the following table: […]
# [4] = after one intravenous bolus of etomidate 3 mg/kg, cited from earlier work
# 11β-hydroxylase = 11β-hydroxylase versus GABAA; cited from earlier work
# [5] = Example 9, 2ED50 via tail vein, listed as etomidate
# [6] = Example 10, ratio of peak value to base value
# [7] = Example 11, ratio of peak value to baseline
compound,measurement,setting,value
"CCOC(=O)c1cncn1[C@H](C)c1ccccc1 [Etomidate, reference compound]",ED50,"Male SD rats [1]; Example 8, compounds in DMSO",1.14 mg/kg
same,ED50,"Male SD rats [1]; Example 9, salts in normal saline",1.06 mg/kg
same,sedative-hypnotic and general anesthetic effects (conclusion in words),Male SD rats [2]; Example 8,good sedative-hypnotic and general anesthetic effects
same,Incidence of adverse effect: Muscle tremor,"Male SD rats [2]; Example 8, 2ED50 via tail vein",70%
same,Onset time,"Male SD rats [2]; Example 8, 2ED50 via tail vein",Immediate
same,Onset time,"Male SD rats [2]; Example 8, 2ED50 via tail vein, listed as etomidate",immediate action
same,Last time,"Male SD rats [2]; Example 8, 2ED50 via tail vein",6.1 ± 1.3 min
same,Palinesthesia tune,"Male SD rats [2]; Example 8, 2ED50 via tail vein, recovery to full recovery of body-righting reflex",4.5 ± 1.2 min
same,sedative-hypnotic and general anesthetic effects (conclusion in words),Male SD rats [2]; Example 9,good sedative-hypnotic and general anesthetic effects
same,Incidence of adverse effect: Muscle tremor,"Male SD rats [2]; Example 9, 2ED50 via tail vein",60%
same,Onset time,"Male SD rats [2]; Example 9, 2ED50 via tail vein",Immediate
same,Onset time,Male SD rats [2]; [5],immediate action
same,Last time,"Male SD rats [2]; Example 9, 2ED50 via tail vein",5.9 ± 1.5 min
same,Last time,Male SD rats [2]; [5],4 to 8 min
same,Palinesthesia time,"Male SD rats [2]; Example 9, 2ED50 via tail vein, recovery to full recovery of body-righting reflex",5.1 ± 1.3 min
same,Increase degree of corticosterone,[3]; [6],2.53 ± 0.65
same,Increase degree of cortisol,[3]; [6],2.12 ± 0.56
same,inhibition on cortical hormone (conclusion in words),"[3]; Example 10, after stimulation by ACTH",significantly inhibit the self-synthesis of adrenocortical hormone
same,cortical hormone increase after stimulation by ACTH (conclusion in words),[3]; Example 11,significantly suppress the self-synthesis of adrenocortical hormone
same,Increase degree of corticosterone,[3]; [7],2.80 ± 0.76
same,Increase degree of cortisol,[3]; [7],2.46 ± 0.87
same,time for the plasma medicine concentration maintaining,[4],8 min
same,time of plasma medicine concentration maintaining above 8 ng/mL,[4],up to 8 h
same,minimal effective concentration for inhibition of cortical hormone synthesis,[4]; plasma,8 ng/mL
same,minimal effective concentration of anesthetic effect,[4]; plasma,110 ng/mL
same,ability of binding to 11β-hydroxylase relative to binding to GABAA acceptor,11β-hydroxylase,100 times

# Reference: patent publication US9969695B2, “N-substituted imidazole carboxylic ester chiral compound containing an ether side chain, its preparation and application” (WEST CHINA HOSPITAL, SICHUAN UNIVERSITY, priority 2013, dated 2018)
